Data published in patent US8071548B2, “Method of reducing injury to mammalian cells” (Nono, Inc., priority 2002, dated 2011).

Test system: nitrotyrosine
Test: Nitrotyrosine immunostaining (peroxynitrite formation)
Assay type: cell-based, mouse
Settings: pretreatment, 12 h post-NMDA challenge
Method: Cultures were fixed with warm 4% paraformaldehyde and 4% sucrose in PBS for 20 min, permeabilized with 0.1% Triton X-100 for 10 min at 4° C., and blocked with 10% goat serum in PBS for 1 h at RT. Immunofluorescence was visualized with an inverted Nikon microscope using a 40× oil immersion lens. FITC, rhodamine and Hoechst were visualized using 465-495 excitation and 515-555 nm emission, 510-560 nm excitation and 590 nm emission, and 340 nm excitation and 510 nm emission, respectively. Active caspase 3 was labelled by incubating the cultures with a purified rabbit monoclonal anti-active caspase 3 antibody (1:300; BD PharMingen) and a fluorescein-conjugated goat anti-mouse IgG secondary antibody (1:500; Transduction Labs). Nitrotyrosine was labelled by incubating the cultures with a rabbit polyclonal α-nitrotyrosine primary antibody (1:300; Upstate) and a rhodamine-conjugated goat anti-rabbit IgG secondary antibody (1:500; Transduction Labs). AIF was labelled by incubating the cultures with an AIF antibody (1:200; Santa Cruz, (Zhang et al., 2002)) and a rhodamine-conjugated goat anti-mouse IgG secondary antibody (1:500; Transduction Labs). In some experiments, nuclei were counter-stained with Hoechst 33258 (1:5,000, Transduction Labs).

## Tat-KLSSIESDV [Tat-NR2B9c]
  nitrotyrosine immunoreactivity: reduced nitrotyrosine immunoreactivity
